In the experiment the target is T1, MavL(42-435) (Legionella pneumophila, UniProt Q5ZSJ1).
T1 construct: gene lpg2526
To be noted: 15 mM Tris-HCl pH 8.0, 50 mM NaCl, 20 °C; 300 µM ligand into 30 µM protein.

For one molecule, Kd results are on record in publication PMC8699189 (Biomolecules, 2021).

T1 sequence (Q5ZSJ1 42-435 limits assumed): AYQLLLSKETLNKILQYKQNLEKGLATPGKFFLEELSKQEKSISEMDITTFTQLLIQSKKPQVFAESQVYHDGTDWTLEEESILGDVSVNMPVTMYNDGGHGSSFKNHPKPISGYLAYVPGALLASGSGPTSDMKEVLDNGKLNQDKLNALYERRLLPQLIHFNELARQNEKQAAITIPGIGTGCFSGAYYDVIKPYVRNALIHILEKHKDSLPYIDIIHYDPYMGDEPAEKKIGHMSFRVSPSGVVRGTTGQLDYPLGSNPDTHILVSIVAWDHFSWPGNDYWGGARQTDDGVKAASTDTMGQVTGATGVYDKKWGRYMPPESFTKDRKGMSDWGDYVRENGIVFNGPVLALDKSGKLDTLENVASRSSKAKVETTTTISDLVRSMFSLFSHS

Molecule `Nc1ncnc2c1ncn2[C@@H]1O[C@H](COP(=O)(O)OP(=O)(O)OC[C@H]2OC(O)[C@H](O)[C@@H]2O)[C@@H](O)[C@H]1O` (stereo partly shown) [ADP-ribose] displayed a Kd of 13 µM.

The term Kd denotes the constant that tells how readily two partners part at equilibrium.
